Data from patent publication US10920265B2, “Compounds and methods for detection of enzymes that remove methyl succinyl groups from epsilon-amino lysine moieties” (Enzo Life Sciences, Inc., priority 2011, dated 2021).
*: point of attachment. AMC = Cc1cc(=O)oc2cc(N*)ccc12

Legend:
SIRT4 = target: T1, SIRT4 (Homo sapiens, UniProt Q9Y6E7); assay: Sirtuin activity with fluorogenic lysyl substrates; assay type: biochemical; conditions: 50 μM substrate, 500 μM NAD^+
T1 construct: purchased BPS Bioscience 50015
T1 sequence (Q9Y6E7 29-314): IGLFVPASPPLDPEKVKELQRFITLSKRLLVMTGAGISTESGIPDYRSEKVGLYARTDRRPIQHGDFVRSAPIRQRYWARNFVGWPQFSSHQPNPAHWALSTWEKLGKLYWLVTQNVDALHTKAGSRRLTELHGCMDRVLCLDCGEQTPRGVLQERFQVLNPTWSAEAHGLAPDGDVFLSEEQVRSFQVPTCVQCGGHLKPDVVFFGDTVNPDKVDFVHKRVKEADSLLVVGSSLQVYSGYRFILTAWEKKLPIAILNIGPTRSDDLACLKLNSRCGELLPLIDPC
In short: (§1)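 Kit-based fluorogenic assay at 37 °C using trypsin-developed lysyl-AMC substrates bearing acetyl, succinyl or trifluoroacetyl groups. Enzyme sources were human recombinant HDACs and SIRTs, HDAC3/NCOR1, HeLa nuclear extract, or NP-40 lysate of HeLa S3 cells in 50 mM Tris/HCl pH 8.0.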

SIRT2 = target: T2, SIRT2 (Homo sapiens, UniProt Q8IXJ6); assay: Sirtuin activity with fluorogenic lysyl substrates; assay type: biochemical; conditions: 50 μM substrate, 500 μM NAD^+
T2 sequence (Q8IXJ6 1-389): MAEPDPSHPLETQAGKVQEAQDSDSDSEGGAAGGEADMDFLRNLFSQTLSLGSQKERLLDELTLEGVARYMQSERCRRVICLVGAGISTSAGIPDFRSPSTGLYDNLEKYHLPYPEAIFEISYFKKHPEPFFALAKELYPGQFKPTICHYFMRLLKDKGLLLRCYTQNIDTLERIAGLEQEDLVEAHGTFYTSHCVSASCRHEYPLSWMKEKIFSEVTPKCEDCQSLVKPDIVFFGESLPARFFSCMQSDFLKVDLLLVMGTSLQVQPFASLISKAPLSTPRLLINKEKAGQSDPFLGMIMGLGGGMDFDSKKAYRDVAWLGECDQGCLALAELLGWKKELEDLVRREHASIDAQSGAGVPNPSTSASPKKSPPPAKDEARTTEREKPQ
In short: as §1

HDAC8 = target: T3, HDAC8 (Homo sapiens, UniProt Q9BY41); assay: HDAC activity with fluorogenic lysyl substrates; assay type: biochemical; conditions: 50 μM substrate
T3 construct: purchased ENZO Life Sciences BML-SE145
T3 sequence (Q9BY41 1-377): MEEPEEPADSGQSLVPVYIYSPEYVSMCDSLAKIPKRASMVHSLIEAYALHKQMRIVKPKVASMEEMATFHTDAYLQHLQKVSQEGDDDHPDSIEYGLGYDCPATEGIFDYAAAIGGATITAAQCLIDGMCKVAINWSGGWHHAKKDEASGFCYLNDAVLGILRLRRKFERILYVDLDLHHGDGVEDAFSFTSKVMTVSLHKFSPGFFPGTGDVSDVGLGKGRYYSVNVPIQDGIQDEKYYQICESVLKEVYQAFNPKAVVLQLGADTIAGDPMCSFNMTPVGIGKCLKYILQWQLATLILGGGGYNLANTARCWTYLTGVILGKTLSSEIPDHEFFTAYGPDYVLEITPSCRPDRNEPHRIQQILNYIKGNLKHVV
In short: as §1

HDAC9 = target: T4, HDAC9 (Homo sapiens, UniProt Q9UKV0); assay: HDAC activity with fluorogenic lysyl substrates; assay type: biochemical; conditions: 50 μM substrate
T4 construct: made in house; host or cells: E. coli
T4 sequence (Q9UKV0 644-1066 isoform Q9UKV0-5): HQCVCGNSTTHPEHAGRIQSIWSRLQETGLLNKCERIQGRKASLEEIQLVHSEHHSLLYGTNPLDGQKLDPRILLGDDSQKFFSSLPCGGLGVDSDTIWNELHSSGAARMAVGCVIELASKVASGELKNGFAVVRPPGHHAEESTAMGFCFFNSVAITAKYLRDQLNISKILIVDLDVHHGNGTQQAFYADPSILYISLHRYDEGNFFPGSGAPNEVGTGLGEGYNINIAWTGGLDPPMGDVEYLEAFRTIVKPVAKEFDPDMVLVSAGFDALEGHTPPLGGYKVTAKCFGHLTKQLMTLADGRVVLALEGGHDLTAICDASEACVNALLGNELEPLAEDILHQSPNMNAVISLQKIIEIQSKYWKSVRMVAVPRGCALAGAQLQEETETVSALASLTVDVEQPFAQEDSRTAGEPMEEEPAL
In short: as §1

HDAC11 = target: T5, HDAC11 (Homo sapiens, UniProt Q96DB2); assay: HDAC activity with fluorogenic lysyl substrates; assay type: biochemical; conditions: 50 μM substrate
T5 construct: purchased ENZO Life Sciences BML-SE560
T5 sequence (Q96DB2 1-347): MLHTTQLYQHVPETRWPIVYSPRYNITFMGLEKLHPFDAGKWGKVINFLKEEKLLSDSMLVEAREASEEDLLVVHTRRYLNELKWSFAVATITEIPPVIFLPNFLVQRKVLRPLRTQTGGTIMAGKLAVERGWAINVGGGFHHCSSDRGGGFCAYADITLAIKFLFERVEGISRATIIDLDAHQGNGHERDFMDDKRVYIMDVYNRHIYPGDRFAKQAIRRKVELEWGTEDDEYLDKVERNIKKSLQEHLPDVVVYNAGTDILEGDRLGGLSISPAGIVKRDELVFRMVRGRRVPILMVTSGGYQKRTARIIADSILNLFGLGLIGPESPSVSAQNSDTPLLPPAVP
In short: as §1

HDAC4 = assay: HDAC activity with fluorogenic lysyl substrates; assay type: biochemical, human; conditions: 50 μM substrate
Method: The Ac-Lys(Succ.)-AMC substrate was tested for activity with recombinant preparations of human HDACs 1-11, SIRTs 1-4, 6 and 7, a complex of HDAC3 with a fragment of the activating protein NCOR1 and with HeLa nuclear extract, a rich source of active HDACs in their native multiprotein complexes.
Enzyme and extract catalog products obtained from ENZO Life Sciences included: HDAC1 (Cat. # BML-SE456), HDAC2 (Cat. # BML-SE500), HDAC3 (Cat. # BML-SE507), HDAC3/NCOR1 Complex (Cat. # BML-SE515), HDAC6 (Cat. # BML-SE508), HDAC8 (Cat. # BML-SE145), HDAC10 (Cat. # BML-SE559), HDAC11 (Cat. # BML-SE560), SIRT1 (Cat. # BML-SE239), SIRT2 (Cat. # BML-SE251), SIRT3 (Cat. # BML-SE270), SIRT5 (Cat. # BML-SE555), HeLa Nuclear Extract (Cat. # BML-KI140), Trypsin (“Fluor de Lys Developer”, 80 mg/ml bovine trypsin in 1 mM HCl, Cat. # BML-KI105 or “Fluor de Lys Developer II”, 80 mg/ml bovine trypsin in 1 mM HCl, Cat. # BML-KI176). […] Enzymes obtained from BPS Bioscience, San Diego, Calif. included: human recombinants SIRT4 (Cat. #50015), SIRT6 (Cat. #50017), SIRT7 (Cat. #50018). […]

Activity (pmol/min/μg) (SIRT4)	Activity (HDAC8) [pmol/min/µg]	Activity (HDAC9) [pmol/min/µg]	Activity (pmol/min/μg) (HDAC8)	Activity (pmol/min/μg) (HDAC9)	Activity (pmol/min/μg) (HDAC11)	Compound	Activity (pmol/min/μg) (HDAC4)	also measured
Undetectable			Undetectable	Undetectable	Undetectable	CC(=O)N[C@@H](CCCCNC(=O)CCC(=O)O)C(=O)Nc1ccc2c(C)cc(=O)oc2c1 [Compound 1, N—(N^α-acetyl-L-Lysine(N^ε-succinyl))-AMC]	Undetectable	Activity (pmol/min/μg) (SIRT2): Undetectable
			Undetectable	Undetectable		CCCCCCCCCCCCCC(=O)NCCCC[C@H](NC(C)=O)C(=O)Nc1ccc2c(C)cc(=O)oc2c1 [Compound 4, N—(N^α-acetyl-L-Lysine(N^ε-myristoyl))-AMC]		
	0.003	0.135				COC(=O)CCC(=O)NCCCC[C@H](NC(C)=O)C(=O)Nc1ccc2c(C)cc(=O)oc2c1 [Compound 5, N—(N^α-acetyl-L-Lysine(N^ε-methyl succinyl))-AMC]		

The next lines start with the compound.

Compound	Activity (pmol/min/μg) (SIRT4)	Activity (HDAC8) [pmol/min/µg]	Activity (HDAC9) [pmol/min/µg]	Activity (pmol/min/μg) (HDAC8)	Activity (pmol/min/μg) (HDAC9)	Activity (pmol/min/μg) (HDAC11)	Activity (pmol/min/μg) (HDAC4)	also measured
CC(=O)NCCCCC(NC(C)=O)C(=O)Nc1ccc2c(C)cc(=O)oc2c1 (centres unmarked) [Ac-Lys(Ac.)-AMC, Ac-Lys(ε-acetyl)-AMC, reference compound]	Undetectable	0.091	0.027				Undetectable	Activity (SIRT2): 0.016 pmol/min/µg; Activity (HDAC11): 4.15 pmol/min/µg
Ac-Arg-His-Lys-Lys(ε-acetyl)-AMC (Ac-RHKK(Ac)-{AMC}; SMILES CC(=O)NCCCC[C@H](NC(=O)[C@H](CCCCN)NC(=O)[C@H](Cc1c[nH]cn1)NC(=O)[C@H](CCCNC(=N)N)NC(C)=O)C(=O)Nc1ccc2c(C)cc(=O)oc2c1) [Ac-RHKK(Ac)-AMC, p53 peptide fluorogenic deacetylase substrate, Cat. # BML-KI177, reference compound]						Ac-RHKK(Ac)-AMC/6.09 pmol/min/μg		
